EP3452027B1, “USE OF […] TREAT SEA LICE” (priority 2016, dated 2017)
In brackets after ≈: the same amount, converted by molar mass. Like-named read-outs stand apart in the source and are kept apart here.

Legend:
fish embryos = settings: 100µM bergapten; cited from earlier work
[1] = tested on: Lepeophtheirus salmonis sea lice; test: whole plant or invertebrate; settings: 24 h
[2] = tested on: Lepeophtheirus salmonis sea lice
Argulus = settings: for Argulus detachment from goldfish and koi carp: after two hours

SMILES: COc1c2ccoc2cc2oc(=O)ccc12 [bergapten, 5-methoxypsoralen]
- fish embryos killed (fish embryos): one third
- remaining viable embryos with defects in anterior-posterior patterning (fish embryos): half

SMILES: C=C(C)[C@@H]1CCC2=CC(=O)C[C@@H](C)[C@]2(C)C1 [nootkatone]
- EC50 ([1]; read-out: Females EC50): 9.17 µg/mL (≈ 42 µM)
- EC90 ([1]; read-out: Females EC90, adult female (pre-ovigerous) L. salmonis, 24 hours post exposure): 13.4 µg/mL (≈ 61.5 µM)
- LC50 ([1]; read-out: Females LC50): 9.69 µg/mL (≈ 44.4 µM)
- LC50 ([1]; read-out: LC50 for the total sea lice population (dose that would kill 50% of the total population)): 13.5 µg/mL (≈ 62 µM)
- EC50 ([1]; read-out: Males EC50): 11.5 µg/mL (≈ 52.9 µM)
- EC90 ([1]; read-out: Males EC90, adult male L. salmonis, 24 hours post exposure): 24.3 µg/mL (≈ 111 µM)
- LC50 ([1]; read-out: Males LC50): 16.4 µg/mL (≈ 75.1 µM)
- concentrations at which no viable sea lice were observed ([2]; 24 hours post-exposure, microscopic observation): ≥ 38 mg/L
- Males EC90 ([2]; adult male L. salmonis, 24 hours post exposure): 24.27 µg/mL
- Females LC50 ([2]; female, Lepeophtheirus salmonis (sea louse), in vivo): 9.70 µg/mL
- Males LC50 ([2]; male, Lepeophtheirus salmonis (sea louse), in vivo): 16.40 µg/mL
- Argulus detachment from goldfish and koi carp (Argulus; 2ppm nootkatone in tap water): no parasites could be seen
- Argulus detachment from goldfish and koi carp (Argulus; 6ppm nootkatone in tap water): no parasites could be seen
- mortality of Argulus (Argulus; in vivo): 100%
